Several values for one entry are separate records, joined by “and”; a condition that tells them apart may be missing. Identical values can stand only once. Inconclusive results and toxic doses are left out. How the source made its calls: active means survival T/C of 150% or more; inactive means T/C below 125% in these data.
Test system: P388 leukemia ip, CD2F1 mice, survival T/C
Assay: NCI In Vivo Anticancer Drug Screen. Data for tumor model P388 Leukemia (intraperitoneal) in CD2F1 (CDF1) mice
Details: endpoint: median survival time, higher = longer survival
In short: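 Mice carrying the transplanted tumor received test compound or vehicle. Survival was recorded in each group, and the value is the treated-group measurement divided by that of the vehicle-treated control group.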

[1] = dose: 50.0 mg/kg/injection, schedule: Q01DX005 (ip), vehicle: saline with Tween-80
[2] = dose: 100.0 mg/kg/injection, schedule: Q01DX005 (ip), vehicle: saline with Tween-80
[3] = dose: 200.0 mg/kg/injection, schedule: Q01DX005 (ip), vehicle: saline with Tween-80
[4] = dose: 12.5 mg/kg/injection, schedule: Q01DX009 (ip), vehicle: Klucel (hydroxypropylcellulose) (HPC)
[5] = dose: 50.0 mg/kg/injection, schedule: Q01DX005 (ip), vehicle: Klucel (hydroxypropylcellulose) (HPC)
[6] = dose: 100.0 mg/kg/injection, schedule: Q01DX005 (ip), vehicle: Klucel (hydroxypropylcellulose) (HPC)
[7] = dose: 60.0 mg/kg/injection, schedule: Q01DX005 (ip), vehicle: saline with Tween-80
[8] = dose: 120.0 mg/kg/injection, schedule: Q01DX005 (ip), vehicle: saline with Tween-80
[9] = dose: 240.0 mg/kg/injection, schedule: Q01DX005 (ip), vehicle: saline with Tween-80
[10] = dose: 200.0 mg/kg/injection, schedule: Q01DX005 (ip), vehicle: Klucel (hydroxypropylcellulose) (HPC)
[11] = dose: 50.0 mg/kg/injection, schedule: Q01DX009 (ip), vehicle: Klucel (hydroxypropylcellulose) (HPC)
[12] = dose: 100.0 mg/kg/injection, schedule: Q01DX009 (ip), vehicle: Klucel (hydroxypropylcellulose) (HPC)
[13] = dose: 100.0 mg/kg/injection, schedule: Q01DX001 (ip), vehicle: saline with Tween-80
[14] = dose: 400.0 mg/kg/injection, schedule: Q01DX001 (ip), vehicle: saline with Tween-80

Measured: T/C

COc1cc2c(cc1OC)C1C(C(=O)O)c3ccc(OC)c(OC)c3C(=O)N1CC2 (stereo not given)
inactive: dose: 50.0 mg/kg/injection, schedule: Q04DX003 (ip), vehicle: distilled water + Tween-80 100 % of control | dose: 100.0 mg/kg/injection, schedule: Q04DX003 (ip), vehicle: distilled water + Tween-80 101 % of control | dose: 200.0 mg/kg/injection, schedule: Q04DX003 (ip), vehicle: distilled water + Tween-80 103 % of control | dose: 400.0 mg/kg/injection, schedule: Q04DX003 (ip), vehicle: distilled water + Tween-80 89 % of control

O=C(Nc1cccc2c1C(=O)c1cccc(Nc3cccc4c3C(=O)c3cccc(NC(=O)c5ccccc5)c3C4=O)c1C2=O)c1ccccc1
inactive: [1] 101 % of control and 94 % of control | [2] 88 % of control and 92 % of control | [3] 93 % of control

O=C1C(Br)=CC(=NCl)C=C1Br
inactive: dose: 3.13 mg/kg/injection, schedule: Q01DX009 (ip), vehicle: Klucel (hydroxypropylcellulose) (HPC) 101 % of control and 88 % of control | dose: 6.25 mg/kg/injection, schedule: Q01DX009 (ip), vehicle: Klucel (hydroxypropylcellulose) (HPC) 101 % of control | dose: 6.25 mg/kg/injection, schedule: Q01DX009 (ip), vehicle: saline with Tween-80 93 % of control | [4] 105 % of control and 94 % of control | dose: 12.5 mg/kg/injection, schedule: Q01DX009 (ip), vehicle: saline with Tween-80 88 % of control | dose: 25.0 mg/kg/injection, schedule: Q01DX009 (ip), vehicle: saline with Tween-80 90 % of control

CC(=O)N1CCc2ccccc2C1C1c2ccccc2CCN1C(C)=O (stereo not given)
inactive: dose: 100.0 mg/kg/injection, schedule: Q04DX003 (ip), vehicle: Klucel (hydroxypropylcellulose) (HPC) 94 % of control | dose: 200.0 mg/kg/injection, schedule: Q04DX003 (ip), vehicle: Klucel (hydroxypropylcellulose) (HPC) 94 % of control | dose: 400.0 mg/kg/injection, schedule: Q04DX003 (ip), vehicle: Klucel (hydroxypropylcellulose) (HPC) 92 % of control

CC12CCC3(O)C(CCC4C(O)C(=O)CCC43C)C1CCC2=O (stereo not given)
inactive: dose: 11.25 mg/kg/injection, schedule: Q01DX005 (ip), vehicle: Klucel (hydroxypropylcellulose) (HPC) 105 % of control | dose: 22.5 mg/kg/injection, schedule: Q01DX005 (ip), vehicle: Klucel (hydroxypropylcellulose) (HPC) 100 % of control | dose: 45.0 mg/kg/injection, schedule: Q01DX005 (ip), vehicle: Klucel (hydroxypropylcellulose) (HPC) 105 % of control | dose: 90.0 mg/kg/injection, schedule: Q01DX005 (ip), vehicle: Klucel (hydroxypropylcellulose) (HPC) 114 % of control | dose: 180.0 mg/kg/injection, schedule: Q01DX005 (ip), vehicle: Klucel (hydroxypropylcellulose) (HPC) 98 % of control

O=C1CNC(=O)N1CN1CCOCC1
inactive: dose: 25.0 mg/kg/injection, schedule: Q01DX005 (ip), vehicle: Klucel (hydroxypropylcellulose) (HPC) 107 % of control | [5] 107 % of control and 111 % of control | [6] 118 % of control

CC(C)(C#N)OC(=O)c1cccc(C(=O)OC(C)(C)C#N)c1Sc1ccccc1
inactive: dose: 25.0 mg/kg/injection, schedule: Q01DX001 (ip), vehicle: other 99 % of control | dose: 50.0 mg/kg/injection, schedule: Q01DX001 (ip), vehicle: other 105 % of control | dose: 100.0 mg/kg/injection, schedule: Q01DX001 (ip), vehicle: other 98 % of control and 105 % of control

COc1ccc2oc3cc(Cl)ccc3c(=O)c2c1
inactive: [7] 118 % of control | [8] 101 % of control | [9] 100 % of control

Nc1nc2c(ncn2C2OC(CO)C(O)C2O)c(=O)o1 (stereo not given)
inactive: [5] 106 % of control | [6] 112 % of control | [10] 116 % of control | dose: 400.0 mg/kg/injection, schedule: Q01DX005 (ip), vehicle: Klucel (hydroxypropylcellulose) (HPC) 111 % of control

CC(=O)OCc1c(-c2ccccc2)sc2ccccc2c1=O
inactive: [5] 96 % of control | [6] 102 % of control | [10] 97 % of control

C/C(=N\N=N\c1ccc(C)s1)c1ccccc1
inactive: dose: 50.0 mg/kg/injection, schedule: Q01DX005 (ip), vehicle: Klucel + Tween-80 105 % of control | dose: 100.0 mg/kg/injection, schedule: Q01DX005 (ip), vehicle: Klucel + Tween-80 105 % of control | dose: 200.0 mg/kg/injection, schedule: Q01DX005 (ip), vehicle: Klucel + Tween-80 97 % of control

N#Cc1cc2ccccc2n(Cc2ccccc2)c1=O
inactive: [5] 101 % of control | [6] 109 % of control | [10] 100 % of control

COc1ccccc1-n1c(=S)n(-c2ccccc2C)c2nc3ccccc3nc1/c2=N\Nc1ccccn1
inactive: [1] 100 % of control | [2] 102 % of control

O=C(O)Cc1cc(Br)c(O)c(Br)c1
inactive: dose: 12.5 mg/kg/injection, schedule: Q01DX009 (ip), vehicle: distilled water + Tween-80 107 % of control | dose: 25.0 mg/kg/injection, schedule: Q01DX009 (ip), vehicle: distilled water + Tween-80 107 % of control | dose: 50.0 mg/kg/injection, schedule: Q01DX009 (ip), vehicle: distilled water + Tween-80 98 % of control | dose: 100.0 mg/kg/injection, schedule: Q01DX009 (ip), vehicle: distilled water + Tween-80 98 % of control | dose: 200.0 mg/kg/injection, schedule: Q01DX009 (ip), vehicle: distilled water + Tween-80 100 % of control

CCn1c(=O)c2[nH]c(Br)nc2n(CC)c1=O
inactive: [4] 124 % of control | dose: 16.0 mg/kg/injection, schedule: Q01DX009 (ip), vehicle: Klucel (hydroxypropylcellulose) (HPC) 106 % of control | dose: 25.0 mg/kg/injection, schedule: Q01DX009 (ip), vehicle: Klucel (hydroxypropylcellulose) (HPC) 103 % of control and 97 % of control | dose: 32.0 mg/kg/injection, schedule: Q01DX009 (ip), vehicle: Klucel (hydroxypropylcellulose) (HPC) 104 % of control | [11] 105 % of control and 95 % of control | dose: 64.0 mg/kg/injection, schedule: Q01DX009 (ip), vehicle: Klucel (hydroxypropylcellulose) (HPC) 114 % of control | [12] 98 % of control and 103 % of control

Cc1cc(Nc2cc(=O)[nH]c(=O)[nH]2)ccc1N
inactive: [7] 97 % of control | [8] 97 % of control | [9] 93 % of control

COc1ccc(Cc2cc3c(cc2OCCO)OCO3)cc1
inactive: [1] 105 % of control | [2] 103 % of control | [3] 109 % of control

CCC1C2CC3C4N(C)c5ccccc5C45CC(C2C5O)N3C1O (stereo not given)
inactive: dose: 0.31 mg/kg/injection, schedule: Q01DX009 (ip), vehicle: saline 102 % of control and 106 % of control | dose: 0.62 mg/kg/injection, schedule: Q01DX009 (ip), vehicle: saline 99 % of control and 106 % of control and 121 % of control | dose: 1.25 mg/kg/injection, schedule: Q01DX009 (ip), vehicle: saline 102 % of control and 106 % of control and 95 % of control | dose: 2.5 mg/kg/injection, schedule: Q01DX009 (ip), vehicle: saline 99 % of control and 105 % of control (2×) | dose: 5.0 mg/kg/injection, schedule: Q01DX009 (ip), vehicle: saline 102 % of control | dose: 10.0 mg/kg/injection, schedule: Q01DX009 (ip), vehicle: saline 105 % of control | dose: 15.0 mg/kg/injection, schedule: Q01DX005 (ip), vehicle: saline with Tween-80 100 % of control | dose: 30.0 mg/kg/injection, schedule: Q01DX005 (ip), vehicle: saline with Tween-80 94 % of control | [7] 93 % of control and 100 % of control | [8] 93 % of control

CC(=O)OC1CCC2(C)C(=CCC3C2CCC2(C)C3CC3N(c4ccccc4Cl)C32C(C)=O)C1 (stereo not given)
inactive: dose: 25.0 mg/kg/injection, schedule: Q01DX001 (ip), vehicle: saline with Tween-80 93 % of control | dose: 50.0 mg/kg/injection, schedule: Q01DX001 (ip), vehicle: saline with Tween-80 95 % of control | [13] 99 % of control and 90 % of control | [14] 89 % of control

Nc1nc(N)c(N=O)c(Nc2ccc(Br)cc2)n1
inactive: dose: 100.0 mg/kg/injection, schedule: Q04DX003 (ip), vehicle: saline with Tween-80 91 % of control | dose: 400.0 mg/kg/injection, schedule: Q04DX003 (ip), vehicle: saline with Tween-80 95 % of control

C/C(=N\OC(=O)CNOC(C)(C)C)c1ccccn1
inactive: [13] 103 % of control | dose: 200.0 mg/kg/injection, schedule: Q01DX001 (ip), vehicle: saline with Tween-80 99 % of control | [14] 99 % of control

O=C1C(=C2CCCC2)CC/C1=C1/SS/C(=C2/CCC(=C3CCCC3)C2=O)S1
inactive: [11] 99 % of control | [12] 101 % of control | dose: 200.0 mg/kg/injection, schedule: Q01DX009 (ip), vehicle: Klucel (hydroxypropylcellulose) (HPC) 100 % of control
